The text below walks through data of the COVID Moonshot data (paper PMC7615835).

Assay in data set [1]: not given
This is another data set of the same source.

Data set [2] addresses SARS-CoV-2 Main Protease (SARS-CoV-2) (UniProt P0DTD1).
The conditions of data set [3]: in vivo, iv, 0.5 mg/kg.
A further data set deals with SARS-CoV-2 (SARS-CoV-2). As to conditions: helaace2.
For data set [4] the following is noted: human; plasma.
For data set [5] the following is noted: rat; plasma.
Assay in data set [6]: not given
This is another data set of the same source.

For data set [7], the target named is PSP (Eurofins): hr ERalpha (Binding) (AC50) (UniProt P03372).
Chain of UniProt P03372 (P03372 whole entry, looked up): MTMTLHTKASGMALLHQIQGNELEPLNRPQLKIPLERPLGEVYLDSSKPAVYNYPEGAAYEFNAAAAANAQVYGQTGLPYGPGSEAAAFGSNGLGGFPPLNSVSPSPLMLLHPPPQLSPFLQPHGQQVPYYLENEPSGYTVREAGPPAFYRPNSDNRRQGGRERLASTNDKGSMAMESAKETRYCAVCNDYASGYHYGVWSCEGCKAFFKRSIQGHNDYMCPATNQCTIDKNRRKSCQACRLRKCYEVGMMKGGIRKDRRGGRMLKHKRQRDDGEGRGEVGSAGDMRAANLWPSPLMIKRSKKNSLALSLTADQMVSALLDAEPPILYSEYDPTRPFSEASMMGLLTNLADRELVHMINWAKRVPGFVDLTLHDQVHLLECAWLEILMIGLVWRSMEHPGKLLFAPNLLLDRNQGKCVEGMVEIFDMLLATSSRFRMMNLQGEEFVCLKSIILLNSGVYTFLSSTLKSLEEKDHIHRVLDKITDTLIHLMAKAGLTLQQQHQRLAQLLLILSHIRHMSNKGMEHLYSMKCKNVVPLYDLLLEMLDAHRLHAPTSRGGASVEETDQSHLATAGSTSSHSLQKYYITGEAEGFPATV
The conditions of data set [8]: human; liver_microsomes.
The conditions of data set [9]: mouse; liver_microsomes.
Assay in data set [10]: not given
This is another data set of the same source.

For data set [11] the following is noted: mouse; plasma.
The conditions of data set [12]: pampa.
The conditions of data set [13]: helaace2.

pEC50, pIC50: −log10 of the molar value. “And” between values parts separate entries of the source, which are not always exact repeats. Equal values may be shown once.

As to `O=C(Nc1cncc2c1CCCC2)C1CCNc2cc(Cl)c(Cl)cc21` (centres undefined), the logD (in general, the decadic logarithm of the distribution of all forms, ionised or not, between an organic phase and buffer at a given pH) is 3.9.
As to `CC1Cn2nccc2CN1C(=O)CC1(C(=O)Nc2cncc3ccccc23)CCOc2ccc(Cl)cc21` (centres undefined), the CC50 in data set [1] (a549) was greater than 9990 nM. The negative-log IC50 (pIC50) (usually the IC50 on a negative log10 scale, so that one unit is a factor of ten) in [2] is 5.81 and 5.55.
Take `CNC(=O)c1cc2c(NC(=O)C3CCOc4ccc(Cl)cc43)cncc2s1` (centres undefined): the logD was found to be 3. The compound further had a pIC50 in [2] of 6.24. In addition, in data set [3] (rat), the area under the curve AUC(0-inf) – broadly, total exposure, with the tail of the curve extrapolated – is 267 ng·h/mL and 298 ng·h/mL; the AUC(0-t) (in general, exposure summed from dosing to a finite time, without extrapolation to infinity) is 263 ng·h/mL and 291 ng·h/mL; the C0 is 712 ng/mL and 752 ng/mL; the MRT inf – broadly, the average time that molecules of a dose stay in the body – is 55.4 min and 40.1 min. In addition, in [3] (rat), the MRT last (usually a mean duration of stay, worked out from the concentration-time curve) was 35.8 min and 39.7 min; the Vd – broadly, the apparent volume that relates the amount in the body to the concentration in plasma or blood – was 1.45 L/kg and 1.85 L/kg; the clearance (in general, the volume of plasma or blood freed of the substance per unit of time) is 36.2 mL/min/kg and 32.6 mL/min/kg; the half-life (as a rule, how long it takes for the measured level to halve) was 39.1 min and 113 min.
Take `O=C(Cc1ccc(Cl)c(Cl)c1)Nc1cncc2cnccc12`: the CC50 in data set [1] (a549) was greater than 9990 nM. In data set [2], the pIC50 was 5.73.
The compound `CS(=O)(=O)c1ccc2cncc(NC(=O)C3CCNc4cc(Cl)c(Cl)cc43)c2c1` (centres undefined) had a logD of 3.1. The compound further had a CC50 in [1] (a549) greater than 9990 nM. The compound also showed a pIC50 in data set [2] of 6.28. Further, in data set [3] (rat), the AUC(0-inf) was 285 ng·h/mL and 378 ng·h/mL and 178 ng·h/mL; the AUC(0-t) is 282 ng·h/mL and 377 ng·h/mL and 175 ng·h/mL; the C0 is 741 ng/mL and 1320 ng/mL and 725 ng/mL; the MRT inf is 28.6 min and 41 min and 22.8 min. Besides, in data set [3] (rat), the MRT last is 38 min and 27.8 min and 21 min; the Vd was 1.2 L/kg and 0.645 L/kg and 1.15 L/kg; the clearance was 29.2 mL/min/kg and 22.4 mL/min/kg and 50.2 mL/min/kg; the half-life is 38.9 min and 29.9 min and 21.2 min.
On to `Cc1ccc(CC(=O)Nc2cncc3ccccc23)cc1Cl`, for which the CC50 in data set [1] (a549) was greater than 9990 nM. In data set [2], this compound gave a pIC50 of 5.96.
In the case of `O=C(Cc1cccc(Cl)c1)Nc1cncc2cc(F)ccc12`, the CC50 in data set [1] (a549) is greater than 9990 nM. In data set [2], this compound gave a negative-log IC50 (pIC50) of 5.83.
Regarding `Cc1cccc(/C=N/Nc2cc(N3CCOCC3)nc(OCCc3ccccn3)n2)c1`, in the data set on SARS-CoV-2 (SARS-CoV-2), the pEC50 (usually the EC50 on a negative log10 scale, so that one unit is a factor of ten) was > 8.00 and 7.83 and 7.64; the EC90 (as a rule, the concentration at which the effect reaches the 90% level) is 158 nM and 70.8 nM and 82.9 nM.
In data set [1] (a549), `O=C(Nc1cncc2ccccc12)C1CCOc2c(OCc3ccncc3)cc(Cl)cc21` (centres undefined) had a CC50 greater than 9990 nM. In [2], this compound showed a pIC50 of 5.46.
Consider `COCCS(=O)(=O)N1Cc2ccc(Cl)cc2C(C(=O)Nc2cncc3ccccc23)C1` (centres undefined), for which the logD was found to be 2.3. Further, in [2], the pIC50 was 6.68 and 6.67.
`N#Cc1cc(Cl)cc2c1NCCC2C(=O)Nc1cncc2ccccc12` (centres undefined): the CC50 in [1] (a549) is greater than 9990 nM. The same compound showed a pIC50 in data set [2] of 6.62.
On to `O=C(Nc1cncc2ccccc12)C1CN(S(=O)(=O)CC2CNC2)Cc2ccc(Cl)cc21` (centres undefined), for which the logD worked out at 0.2. Besides, the fraction unbound (as a rule, the share of the substance not bound to proteins or other matrix) in data set [4] worked out at 0.295. Besides, in data set [3] (rat), the total exposure AUC(0-inf) was 83.4 ng·h/mL and 86.5 ng·h/mL; the AUC(0-t) is 76.9 ng·h/mL and 76.7 ng·h/mL; the C0 was 406 ng/mL and 381 ng/mL; the MRT inf is 67.2 min and 61.8 min. Also, in [3] (rat), the MRT last is 33.2 min and 32 min; the Vd was 5.86 L/kg and 6.06 L/kg; the clearance is 94.6 mL/min/kg and 91.2 mL/min/kg; the half-life was 91.2 min. Also, in [5], the free fraction (fraction unbound) was found to be 0.335. In addition, in data set [6] (mdck), the Fa was 30.7%; the apical-to-basolateral permeability (Papp A→B) (in general, how fast a substance crosses the layer from the apical side) stood at 1.6 ×10⁻⁶ cm/s; the recovery was 93%. Moreover, in data set [6] (mdck_mdr1), the Papp A→B was 0.517 ×10⁻⁶ cm/s and 0.7 ×10⁻⁶ cm/s; the Papp B→A (commonly how fast a substance crosses the layer from the basolateral side) was 0.896 ×10⁻⁶ cm/s and 0.9 ×10⁻⁶ cm/s. Also, the AC50 (as a rule, the midpoint of the concentration-response curve, whichever way the signal moves) in data set [7] came to 20400 nM. Moreover, the microsomal CLint (as a rule, the capacity of the preparation to metabolise the compound, expressed as a volume cleared per time) in data set [8] was 10 µL/min/mg.
In data set [1] (a549), `O=C(Nc1cncc2ccccc12)C(NC(=O)[C@@H]1CCCO1)c1cccc(Cl)c1` (stereo in doubt) yielded a CC50 greater than 9990 nM. The compound further showed a pIC50 in [2] of 5.64.
For `CN(C)C(=O)CC1(C(=O)Nc2cncc3ccccc23)CCOc2ccc(Cl)cc21` (centres undefined), in that order: greater than 9990 nM and 5.53.
`O=C(Nc1cncc2ccncc12)[C@H]1CCOc2ccc(Cl)cc21` (stereo in doubt) showed a logD of 2.6. The CC50 in data set [1] (a549) was greater than 9990 nM. Moreover, in [3] (mouse), the AUC(0-inf) is 113 ng·h/mL and 122 ng·h/mL; the AUC(0-t) is 112 ng·h/mL and 118 ng·h/mL; the C0 was 525 ng/mL and 604 ng/mL; the MRT inf was 13.7 min and 14.6 min. In addition, in data set [3] (mouse), the MRT last came to 13 min; the volume of distribution (Vd) was 1.01 L/kg and 1 L/kg; the clearance is 73.5 mL/min/kg and 68.7 mL/min/kg; the half-life was 9.48 min and 11.9 min. Further, in data set [9], the half-life turned out to be 7.8 min and the microsomal CLint came out at 223 µL/min/mg. For the same compound, in data set [10], the logD is 2.59 and 2.5. In data set [11], this compound registered a fraction unbound of 0.219 and a recovery of 102%.
As to `O=C(Cc1cc(F)cc(Cl)c1)Nc1cncc2ccccc12`, the CC50 in data set [1] (a549) is greater than 9990 nM. The negative-log IC50 (pIC50) in [2] is 6.43 and 6.40.
Regarding `CS(=O)(=O)c1ccc2cncc(NC(=O)C3CCOc4cc(F)c(Cl)cc43)c2c1` (centres undefined), in [1] (a549), the CC50 is greater than 9990 nM. In addition, in data set [2], the pIC50 was 5.72 and 5.90.
In data set [1] (vero), `COC(=O)C1(NC(=O)C(c2cccnc2)N(C(=O)c2cocn2)c2ccc(C(C)(C)C)cc2)CCCC1` (centres undefined) showed a CC50 greater than 10000 nM. The negative-log IC50 (pIC50) in data set [2] is 5.28.
Regarding `N#CC1(CS(=O)(=O)N2Cc3ccc(Cl)cc3C(C(=O)Nc3cncc4ccccc34)C2)CNC1` (centres undefined), the log distribution coefficient (logD) was 1.8. For the same compound, the pIC50 in data set [2] was 6.77. In addition, in [3] (rat), the AUC(0-inf) was 101 ng·h/mL and 104 ng·h/mL; the AUC(0-t) is 99.7 ng·h/mL and 102 ng·h/mL; the C0 was 417 ng/mL and 369 ng/mL; the MRT inf is 24.5 min and 22.7 min. Moreover, in [3] (rat), the MRT last is 20.7 min and 22.2 min; the volume of distribution (Vd) is 1.55 L/kg and 1.68 L/kg; the clearance is 68.6 mL/min/kg and 67.4 mL/min/kg; the half-life was 20.8 min and 21.5 min.
For the compound `O=C(Nc1cncc2ccccc12)C1CCN(Cc2ccn[nH]2)c2ccc(Cl)cc21` (centres undefined), in [1] (a549), the CC50 is greater than 9990 nM. The same compound had a pIC50 in data set [2] of 6.10.
`CC(C)(C)c1ccc(N(C(=O)c2cocn2)C(C(=O)NC2COC2)c2cccnc2)cc1` (centres undefined) yielded a CC50 in data set [1] (vero) greater than 10000 nM. Also, the pIC50 in data set [2] was 5.39.
On to `COCCN1CCC(C(=O)Nc2cncc3ccccc23)c2cc(Cl)ccc21` (centres undefined), for which, in data set [1] (a549), the CC50 was greater than 9990 nM. The compound further gave a pIC50 in data set [2] of 6.25.
For `CCCc1cc(Cl)cc(CC(=O)Nc2cncc3ccccc23)c1`, in that order: greater than 9990 nM and 5.58.
Take `C=CC(=O)N(C(=O)C1COc2ccc(Cl)cc21)c1cncc2ccccc12` (centres undefined): the Papp (as a rule, the rate of passage across a membrane or cell layer, normalised by area and donor concentration) in data set [12] stood at 435 ×10⁻⁶ cm/s.
`COC(=O)[C@@H]1C[C@@H](NC(=O)C(c2cccnc2)N(C(=O)c2cocn2)c2ccc(C(C)(C)C)cc2)CN1C(=O)OC(C)(C)C` (stereo in doubt) displayed a CC50 in data set [1] (vero) greater than 10000 nM. The pIC50 in data set [2] was 5.17.
With `CCC(CC)COC(=O)[C@H](C)NP(=O)(OC[C@H]1O[C@@](C#N)(c2ccc3c(N)ncnn23)[C@H](O)[C@@H]1O)Oc1ccccc1` (stereo in doubt), the CC50 in [13] is 10800 nM and 27000 nM and 16400 nM.
`C[C@@H]1C[C@@H](C(=O)Nc2cncc3ccccc23)c2cc(Cl)ccc2O1` (stereo in doubt) showed a logD of 3.4. For the same compound, the pIC50 in [2] is 6.64.
As to `O=C(Nc1cncc2ccccc12)C(O)c1ccc(Cl)c(Cl)c1` (centres undefined), in data set [1] (a549), the CC50 was greater than 9990 nM. The same compound gave a negative-log IC50 (pIC50) in [2] of 5.70.
The compound `CN1CCN(S(=O)(=O)N2Cc3ccc(Cl)cc3C(C(=O)Nc3cncc4ccccc34)C2)CC1` (centres undefined) gave a logD of 2.1. This compound showed a pIC50 in data set [2] of 6.94. For the same compound, in [3] (rat), the AUC(0-inf) is 88 ng·h/mL and 85 ng·h/mL; the AUC(0-t) is 84.3 ng·h/mL and 82.4 ng·h/mL; the C0 is 211 ng/mL and 112 ng/mL; the MRT inf was 56.3 min and 30.7 min. In data set [3] (rat), the MRT last is 24.9 min and 47.2 min; the distribution volume (Vd) was 1.6 L/kg and 3.12 L/kg; the clearance was 52.1 mL/min/kg and 55.5 mL/min/kg; the half-life is 29.6 min and 52.7 min.
For `O=C(Nc1cncc2ccccc12)C1CN(S(=O)(=O)C2CNC2)Cc2ccc(Cl)cc21` (centres undefined), the logD was found to be 1.4. For the same compound, the pIC50 in data set [2] was 6.56.
